From article PMC12040169 (PLOS Biology, 2025)

Assay: in vitro
Details: human, hela cells, % viability

Q: Which viability at 28.5 h, 10 µM does the source give for `CCCCN(C)c1nccnc1-c1ccc(CO)cc1` [CBK037666] here?
A: 92.3%

Q: Which viability at 28.5 h, 10 µM does the source give for `COc1ccc(C)cc1-n1ccc(C(=O)NC2CCSCC2)n1` [CBK305502] here?
A: 94.6%

Q: For `CCn1c(=O)n(CC(=O)N2CC(C)CC(C)C2)c2cccnc21` (stereo not drawn) [CBK283845], which viability at 28.5 h, 10 µM is on record?
A: 95.3%

Q: With `CCOC(=O)c1[nH]c2ccccc2c1NC(=O)CS(=O)(=O)c1ccc(C)cc1` [CBK160162] as the molecule, how does the viability at 28.5 h, 10 µM read?
A: 94.3%

Q: Which viability at 28.5 h, 10 µM does the source give for `Cn1c(=O)[nH]c(=O)c2c1nc(SCCN1CCCCC1)n2CCCc1ccccc1` [CBK269469] here?
A: 91.7%

Q: For `C=C(C)Cn1c(=O)c2c(nc3[nH]c(C)c(C)n32)n(C)c1=O` [CBK288184], which viability at 28.5 h, 10 µM is on record?
A: 102%

Q: Which viability at 28.5 h, 10 µM does the source give for `CCOC(=O)Cc1csc(NS(=O)(=O)c2cc(C)c(Cl)cc2Cl)n1` [CBK012872] here?
A: 91.3%

Q: Which viability at 28.5 h, 10 µM does the source give for `CCNC(=O)C1(Cc2ccc(-c3cccs3)cc2)CCN(C(=O)c2ccccc2)CC1` [CBK285794] here?
A: 94.5%

Q: With `O=C(O)c1ccc(NS(=O)(=O)c2ccc(Br)cc2)cc1` [CBK034058] as the molecule, how does the viability at 28.5 h, 10 µM read?
A: 97.6%

Q: For `NCc1ccc(-c2nc3ccccc3[nH]2)nc1` [CBK024396C], which viability at 28.5 h, 10 µM is on record?
A: 87.7%

Q: With `O=C1CC2(CCN(C(=O)C3CCCCC3)CC2)Oc2ccc(F)cc21` [CBK282863] as the molecule, how does the viability at 28.5 h, 10 µM read?
A: 74.6%

Q: Which viability at 28.5 h, 10 µM does the source give for `COCC(=O)N1CCC(Oc2ccc3ncccc3c2)(C(=O)O)CC1` [CBK307340] here?
A: 103%

Q: Which viability at 28.5 h, 10 µM does the source give for `Cc1nnc(CS(=O)(=O)Cc2csc(C(C)C)n2)n1C1CC1` [CBK304106] here?
A: 101%

Q: Which viability at 28.5 h, 10 µM does the source give for `CN(CC(=O)O/N=C(\N)c1ccc(I)cc1)S(=O)(=O)c1cc(Cl)ccc1Cl` [CBK268389] here?
A: 89.6%

Q: With `c1csc(CNc2nc3ccccc3n2CCN2CCOCC2)c1` [CBK262462] as the molecule, how does the viability at 28.5 h, 10 µM read?
A: 109%

Q: Which viability at 28.5 h, 10 µM does the source give for `O=C(NCC1CCCO1)C(=O)Nc1ccccc1F` (stereo not drawn) [CBK263557] here?
A: 90.5%

Q: Which viability at 28.5 h, 10 µM does the source give for `N#Cc1cccc(Nc2cncc(-c3cccc(N)c3)n2)c1` [CBK065319] here?
A: 89.1%

Q: With `OCCN(Cc1ccccc1)Cc1ccc(-c2ccccc2)cc1` [CBK261883] as the molecule, how does the viability at 28.5 h, 10 µM read?
A: 102%

Q: For `CCCNC(=O)Cn1nc(C)n2c(cc3sc(C)cc32)c1=O` [CBK284068], which viability at 28.5 h, 10 µM is on record?
A: 86.1%

Q: For `CCn1nc(NC(=O)CCn2c(C(F)F)cc3cccnc32)cc1C` [CBK285072], which viability at 28.5 h, 10 µM is on record?
A: 83.8%

Q: Which viability at 28.5 h, 10 µM does the source give for `CSCCC(=O)NCc1ccc(-c2csnn2)cc1` [CBK149304] here?
A: 83.2%

Q: With `O=C(CN1C(=O)COc2ccc(Cl)cc21)Nc1cccc(C(=O)O)c1` [CBK269667] as the molecule, how does the viability at 28.5 h, 10 µM read?
A: 93.1%

Q: Which viability at 28.5 h, 10 µM does the source give for `OCCNc1nccnc1-c1ccc2c(c1)OCO2` [CBK088984] here?
A: 95%

Q: Which viability at 28.5 h, 10 µM does the source give for `Cc1cc(C)n(CCCC(=O)N2CCc3ncc(Cl)cc3C2)n1` [CBK284852] here?
A: 103%

Q: With `COc1ccc(C(C)C)cc1-c1cn2ccnc2c(Nc2cccc(OC(F)(F)C(F)F)c2)n1` [CBK038049] as the molecule, how does the viability at 28.5 h, 10 µM read?
A: 95.9%

Q: Which viability at 28.5 h, 10 µM does the source give for `Cc1ccccc1Cc1cccc(C2CCN(S(=O)(=O)c3cn[nH]c3)CC2)n1` [CBK286125] here?
A: 90.8%

Q: With `Cc1ccccc1C(=O)NC(NC(=S)Nc1sc2c(c1C(N)=O)CCCC2)C(Cl)(Cl)Cl` (stereo not drawn) [CBK261047] as the molecule, how does the viability at 28.5 h, 10 µM read?
A: 97.9%

Q: Which viability at 28.5 h, 10 µM does the source give for `O=C(O)CC[n+]1c(/C=C/Nc2ccccc2)oc2ccccc21` [CBK260898B] here?
A: 93.3%

Q: With `CCCn1cc(C(=O)NCc2ccc(Cl)cc2)c(=O)c2cc(CN3CCOCC3)sc21` [CBK018478] as the molecule, how does the viability at 28.5 h, 10 µM read?
A: 93.8%

Q: Which viability at 28.5 h, 10 µM does the source give for `O=C(NCCc1c[nH]c2ccccc12)c1cccs1` [CBK231038] here?
A: 88.2%

Q: With `O=c1cc(-c2ccc(Br)cc2)nc2[nH]ccn12` [CBK016446] as the molecule, how does the viability at 28.5 h, 10 µM read?
A: 81%

Q: With `COc1ccc(C(=O)Nc2nc3ccc(S(C)(=O)=O)cc3s2)cc1` [CBK287338] as the molecule, how does the viability at 28.5 h, 10 µM read?
A: 94.3%

Q: Which viability at 28.5 h, 10 µM does the source give for `CCC(Oc1ccc(C)cc1)C(=O)Nc1ccc(S(N)(=O)=O)cc1` (stereo not drawn) [CBK270036] here?
A: 90.5%

Q: For `O=C(Oc1ccc(N(C(=O)c2ccncc2)S(=O)(=O)c2cccc3cccnc23)c2ccccc12)c1ccncc1` [CBK266915], which viability at 28.5 h, 10 µM is on record?
A: 79.5%

Q: With `Cc1ccsc1CN(C)C(=O)NC1CCCc2c1cnn2CCO` (stereo not drawn) [CBK306349] as the molecule, how does the viability at 28.5 h, 10 µM read?
A: 83%

Q: With `COc1ccc2[nH]c(/C(C#N)=C\c3ccc(-c4cc(C(=O)O)ccc4Cl)o3)nc2c1` [CBK268370] as the molecule, how does the viability at 28.5 h, 10 µM read?
A: 90.4%

Q: For `OC(CSc1ccccc1)CN1CCN(C(c2ccccc2)c2ccccc2)CC1` (stereo not drawn) [CBK074683], which viability at 28.5 h, 10 µM is on record?
A: 91.3%

Q: Which viability at 28.5 h, 10 µM does the source give for `COc1ccc(CCCC(=O)n2c(=O)n(CCc3c[nH]c4ccccc34)c3ccccc32)cc1` [CBK106514] here?
A: 91.3%

Q: For `OC(COc1cccc(C(F)(F)F)c1)CN1CCN(c2nc(-c3ccccc3)ns2)CC1` (stereo not drawn) [CBK074678], which viability at 28.5 h, 10 µM is on record?
A: 93%

Q: With `Cn1[nH]c(COC(C)(C)C)c(Cc2c(Cl)cccc2Cl)c1=O` [CBK093521] as the molecule, how does the viability at 28.5 h, 10 µM read?
A: 99.4%

Q: With `O=C(O)CCC(=O)NNc1ccccc1[N+](=O)[O-]` [CBK261546] as the molecule, how does the viability at 28.5 h, 10 µM read?
A: 95.7%

Q: With `COc1ccc(NC(=O)C[C@@H]2C[C@@H](C(C)C)[C@H](CC#N)C=C2C)cn1` [CBK289216] as the molecule, how does the viability at 28.5 h, 10 µM read?
A: 85.7%

Q: Which viability at 28.5 h, 10 µM does the source give for `O=C(CC1CC1)N1CCCC2(CCN(C(=O)c3cc(F)c(F)cc3F)C2)C1` (stereo not drawn) [CBK131531] here?
A: 96.7%

Q: With `NS(=O)(=O)c1ccc(S(=O)(=O)NCCc2c[nH]c3ccccc23)cc1` [CBK266691] as the molecule, how does the viability at 28.5 h, 10 µM read?
A: 82.2%

Q: With `Oc1ccc(-n2cc(-c3ccsc3)nn2)cc1` [CBK113093] as the molecule, how does the viability at 28.5 h, 10 µM read?
A: 84.6%

Q: With `CC(=O)NCC1CC(=O)N(c2ccc(Br)cc2)C1` (stereo not drawn) [CBK008134] as the molecule, how does the viability at 28.5 h, 10 µM read?
A: 109%

Q: Which viability at 28.5 h, 10 µM does the source give for `CCNS(=O)(=O)c1ccc(NC(=O)Nc2ccccc2OC)cc1` [CBK270331] here?
A: 87.8%

Q: For `Cc1cccc(CN2CCC(NC(=O)Cn3ccccc3=O)CC2)c1` [CBK305667], which viability at 28.5 h, 10 µM is on record?
A: 111%

Q: With `CCCCNC(=O)N1CCN(c2ccccc2Cl)CC1` [CBK043777] as the molecule, how does the viability at 28.5 h, 10 µM read?
A: 106%

Q: Which viability at 28.5 h, 10 µM does the source give for `CN1CCC(N(C)Cc2ccccc2[N+](=O)[O-])CC1` [CBK261565] here?
A: 93.8%

Q: With `O=C(CCn1c(=O)oc2ccccc21)N1CC=C(c2ccc(F)cc2)CC1` [CBK295602] as the molecule, how does the viability at 28.5 h, 10 µM read?
A: 95.8%

Q: Which viability at 28.5 h, 10 µM does the source give for `Cc1cc(/C=C(\C#N)c2nc3ccccc3[nH]2)c(C)n1-c1ccc(C(=O)O)cc1` [CBK267262] here?
A: 94.7%

Q: For `Cc1ccc(-c2ncc(OCCN(C(C)C)C(C)C)nc2N)cc1C` [CBK145150], which viability at 28.5 h, 10 µM is on record?
A: 85.9%

Q: For `COc1ccccc1-c1nccnc1N[C@H]1CCN(Cc2ccccc2)C1` [CBK037626], which viability at 28.5 h, 10 µM is on record?
A: 94.4%

Q: Which viability at 28.5 h, 10 µM does the source give for `NS(=O)(=O)c1ccc(NC(=S)Nc2nn(Cc3ccc(Cl)c(Cl)c3)cc2Br)cc1` [CBK267082] here?
A: 94.4%

Q: For `Nc1ncnc2c1nc(OCc1ccccc1)n2C1CC(O)C(CO)O1` (stereo not drawn) [CBK201164], which viability at 28.5 h, 10 µM is on record?
A: 94.9%

Q: Which viability at 28.5 h, 10 µM does the source give for `COc1ccc(NC(=O)CC2SC(NC3CCCCC3)=NC2=O)c(OC)c1` (stereo not drawn) [CBK059502] here?
A: 93.7%

Q: Which viability at 28.5 h, 10 µM does the source give for `CCOc1cc(C)c(Cl)cc1S(=O)(=O)NCc1ccncc1` [CBK269954] here?
A: 85.8%

Q: With `COc1ccc(COc2nc3c(c(=O)n(C)c(=O)n3C)n2Cc2ccc(Cl)c(Cl)c2)cc1` [CBK268779] as the molecule, how does the viability at 28.5 h, 10 µM read?
A: 91.3%

Q: For `COc1cccc(C(=O)Oc2ccc3c(=O)c(-c4nc5ccccc5s4)c(C)oc3c2)c1` [CBK265540], which viability at 28.5 h, 10 µM is on record?
A: 103%

Q: Which viability at 28.5 h, 10 µM does the source give for `Cc1[nH]c2ccccc2c1[C@H]1CC[C@@H](NC(=O)c2ccnn2C)C1` [CBK284761] here?
A: 99.8%

Q: With `Cc1noc2nc(C3CCN(C(=O)C4CC4C)CC3)cc(C(F)F)c12` (stereo not drawn) [CBK285307] as the molecule, how does the viability at 28.5 h, 10 µM read?
A: 93%

Q: With `C=CCN(c1ccccc1)S(=O)(=O)c1ccc(C(C)(C)CC)cc1` [CBK200036] as the molecule, how does the viability at 28.5 h, 10 µM read?
A: 95.7%
